Test system: cerebellar stem cells
Experiment: Neuronal differentiation of cerebellar stem cells (TuJ1 positive cells)
Format: cell-based, rat
Text: Isolation and quantitation of cerebellar stem cells. Neural stem cells were isolated from rat embryos (obtained from Taconic) at the 19th day of gestation (E19). The rats were sacrificed by inhalation of excess carbon dioxide. The abdomen of the rat was cleaned with 70% ethanol and the uterus was removed quickly and aseptically on the bench top. The uterus was placed in ice cold PBS (GIBCO Cat. # 20012-027) in a 200-ml beaker.
The cerebellar tissue was dissected under a microscope according to the following procedure and collected in a 15-ml tube containing HBSS on ice. The dissection should be completed in 1–2 hours (optimally) and the pH of the HBSS should remain neutral. First, the neck of the embryos was severed towards the bottom and the heads were collected in cold PBS. Next, the skin and scalp was removed from neck and head of the embryo. The brain, including the cerebral cortex, midbrain, cerebellum and some of the spinal cord, was removed by dissection under a microscope and transfered into a clean dish with fresh, cold PBS. The cerebellar region was dissected and cleaned of extraneous tissue, including removal of the meninges, and transferred into cold HBSS in a clean 15 ml tube.
The tube containing the cerebellar tissue was centrifuged at 1,000 RPM for 2 min at 15 C., followed by slow, careful aspiration of the HBSS supernatant (care should be taken to avoid aspirating tissue). (It is best to limit the centrifugation steps as much as possible.) About 1 to 3 ml of DMEM/F12/N2 medium (see below) was immediately added to the remaining tissue; the volume of medium depends on the quantity of the dissected tissue. The tissue was gently triturated about 8 to 10 times using a P-1000 Pipetteman until the tissue was dissociated (as evidenced by cloudy solution), then the tube was incubated in the hood for 5 minutes at room temperature to permit settlement of small particles of undissociated tissue. The supernatant was then transferred into a fresh tube, taking care to avoid the smaller particles of tissue that remained at the bottom of the tube.
Plating and expansion of cerebellar stem cells. The triturated cell suspension of E19 rat cerebellum was seeded into pre-coated 10 cm dishes at 2×10^6 cells per dish. This is denoted as the P0 culture (passage 0). The cells were grown in 5 ml of DMEM/F12/N2 supplemented with 25 mg/L insulin and 10 ng/ml bFGF at 37 C, 5% CO2 and 90% humidity.
Cells were fed daily with 10 ng/ml bFGF. The medium was changed one day after the cells were seeded, and thereafter every other day. On about day 4 of the culture, or when cells reached 70% confluence, the culture was passaged (see “Passage of cerebellar stem cells” below) and seeded into 10 cm dishes at an initial density of 2×10^6 cells per dish. This is denoted as the P1 culture (passage 1). The passaged cells at P1 were grown in DMEM/F12/N2 medium supplemented with 25 mg/L insulin and 10 ng/ml bFGF. The medium was changed every other day.
After two days of culture, some cells were passaged into a P2 culture, and some were seeded in 12-well tissue culture plates for experimental use. One ml of DMEM/F12/N2 medium was used per well of a 12-well plate at 2×10^4 cells per well. Experimental treatments were initiated the day after passage.
Drug treatments. Stem cells obtained as described above were treated with drugs and subjected to differentiation protocols in the second passage. Cells were plated at a density of 1×10^4 cells per well of a 12-well petridish (Falcon).
Drug treatments were started on the next day. […] The WAY 100635 antagonist compound was used simultaneously with buspirone or serotonin in the blocking experiments.

`O=C1CC2(CCCC2)CC(=O)N1CCCCN1CCN(c2ncccn2)CC1` [buspirone, 8-[4-[4-(2-pyrimidinyl)-1-piperazinyl]butyl]-8-azaspiro[4,5]decane-7,9-dione] was tested, and the “% Tuj 1 positive cells” value (10 nM, Table 2 experiment) was 40.0 ± 3.7%, the “% Tuj 1 positive cells” value (10 nM, Table 3 experiment) was 30.7 ± 2.33% and the “% Tuj 1 positive cells” value (30 nM, Table 2 experiment) was 41.2 ± 6.7%. For the same molecule, the “% Tuj 1 positive cells” value (30 nM, Table 3 experiment) was 37.4 ± 2.6%, the “% Tuj 1 positive cells” value (100 nM, Table 2 experiment) was 33.1 ± 2.6% and the “% Tuj 1 positive cells” value (100 nM, Table 3 experiment) was 46.6 ± 3.8%. The “% TuJ1 positive cells” value (100 nM, Table 5 experiment) was 54.4 ± 2.1%, the “% Tuj 1 positive cells” value (300 nM, Table 2 experiment) was 26.1 ± 3.9% and the “% TuJ1 positive cells” value (500 nM, Table 4 experiment) was 56.8 ± 7.1%. The “% TuJ1 positive cells” value (500 nM, Table 5 experiment) was 64.8 ± 2.1%, the “% Tuj 1 positive cells” value (1000 nM, Table 2 experiment) was 21.9 ± 3.9% and the “% Tuj 1 positive cells” value (1000 nM, Table 3 experiment) was 40.3 ± 2.8%. The “% TuJ1 positive cells” value (10 μM, Table 5 experiment) was 67.9 ± 10.2%, the “% TuJ1 positive cells” value (100 μM, Table 5 experiment) was 68.5 ± 6.5% and the “concentration inducing the highest percentage of neuronal differentiation” value (FIG. 1, lane 4) was about 100 nM. For the same molecule, the “neuronal differentiation of neural stem cells (percent of neurons, TuJ1 positive)” value (FIG. 1, lanes 2–5, dosage range 10 nM to 300 nM, about 6 days) was 40–55%, the differentiation of neurons (FIG. 2, lane 3, buspirone 500 nM, untreated control less than 20%) was 50% and the “promotion of neuronal differentiation of neural stem cells (in words)” value (concentrations from 10 nm to 100 um, Tables 2–5) was “effective at promoting neuronal differentiation”.

From patent publication US7132287B2, “Method for neural stem cell differentiation using 5HT-1A agonists” (Psychiatric Genomics, Inc., priority 2001, dated 2006)
